Laboratory results reported in BindingDB's records for doi:10.1016/j.bmc.2009.03.040 (Institute For Medical Research, 2009).

Target: T1, Lethal factor (Bacillus anthracis, UniProt P15917)
T1 sequence (P15917 whole entry): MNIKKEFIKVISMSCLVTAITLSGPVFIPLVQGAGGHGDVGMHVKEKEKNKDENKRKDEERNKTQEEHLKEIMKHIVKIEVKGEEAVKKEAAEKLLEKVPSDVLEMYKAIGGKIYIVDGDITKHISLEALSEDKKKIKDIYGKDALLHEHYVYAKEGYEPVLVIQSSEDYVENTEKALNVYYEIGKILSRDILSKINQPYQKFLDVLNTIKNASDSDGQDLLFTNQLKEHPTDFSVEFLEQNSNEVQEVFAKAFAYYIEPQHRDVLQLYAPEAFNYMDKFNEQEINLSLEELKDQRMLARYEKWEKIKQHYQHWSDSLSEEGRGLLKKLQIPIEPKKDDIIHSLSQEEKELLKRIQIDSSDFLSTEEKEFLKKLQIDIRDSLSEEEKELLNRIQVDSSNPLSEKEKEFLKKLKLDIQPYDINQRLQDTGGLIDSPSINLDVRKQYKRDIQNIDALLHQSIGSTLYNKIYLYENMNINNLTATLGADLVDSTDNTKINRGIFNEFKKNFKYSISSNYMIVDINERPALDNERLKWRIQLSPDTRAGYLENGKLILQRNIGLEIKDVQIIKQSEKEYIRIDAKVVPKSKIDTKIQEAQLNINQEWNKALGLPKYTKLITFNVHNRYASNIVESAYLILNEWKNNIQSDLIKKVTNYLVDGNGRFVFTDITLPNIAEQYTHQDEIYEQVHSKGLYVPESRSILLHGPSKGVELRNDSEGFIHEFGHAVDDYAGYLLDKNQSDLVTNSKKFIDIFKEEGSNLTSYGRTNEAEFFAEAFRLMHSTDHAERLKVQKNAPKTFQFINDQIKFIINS
Test: Inhibition of Bacillus anthracis lethal factor assessed as cleavage of MAPKK by fluorescence peptide cleavage assay

## COc1ccc(-c2ccc(S(=O)(=O)Nc3sccc3-c3nc4ccccc4s3)cc2)cc1 [N-(3-(benzo[d]thiazol-2-yl)thiophen-2-yl)-4'-methoxybiphenyl-4-sulfonamide]
  Ki: 1000 nM
